Experimental data reported in patent publication US20250108213A1, “COMPOSITIONS AND METHODS FOR ENHANCING THE EFFECT OF PLATINUM-BASED SYSTEMIC THERAPY” (NOVOCURE GMBH, priority 2023, published 2025).

How the values were obtained:
A2780 cells = test system: A2780 cells
Description: (§1) Cells were seeded on coverslip (22 mm diameter; 20×10^3 cells/coverslip for A2780 and A2780cis; 40×10^3 cells/coverslip for OVCAR-3). After overnight incubation, the coverslips were transferred into in vitro dishes containing 2 ml of media. TTFields at a frequency of 200 kHz (and intensity of 1 V/cm RMS) were applied to the cells for 72 hr using the INOVITRO system (Novocure, Haifa, Israel).
(§2) For efficacy outcomes (cell count, overall effect, and apoptosis), various concentrations of carboplatin (MCE MedChemExpress, HY-17393), olaparib (Cayman Chemical, 10621), or niraparib (Cayman Chemical, 20842) were applied, with or without TTFields.
(§3) Cell count was examined following treatment using Cytek Northern Lights flow cytometer (Cytek Biosciences, USA).
(§4) Treated cells were harvested, re-plated in 6-well plates (500 cells/well for A2780 and A2780cis; 1000 for cells/well OVCAR-3), and grown for 7 (A2780 and A2780cis) or 21 (OVCAR-3) days. Colonies were stained with 0.5% crystal violet, quantified with ImageJ, and expressed as percentages relative to control. Overall effect was calculated by multiplying colony formation with the corresponding cell count.
(§5) The surviving fraction predicted for an additive effect between TTFields and drug was calculated per the various drug concentrations by multiplying the actual measured surviving fractions for the individual treatments one by the other (SFcalculated additive=SFTTFields×SFdrug; SF are expressed as probability). Based on the calculated values, a trendline was determined. Additivity, synergy, or antagonism was defined when the calculated additive trendline overlapped, was above, or was below the actual measured line for TTFields+drug, respectively.
(§6) For quantifying the magnitude of TTFields-drug interaction, interaction index (Ii) values were calculated by the Bliss independence method using mortality values (Mx=1−SFx). Per the various drug concentrations, mortality predicted for an additive effect between TTFields and drug (Mcalculated additive=MTTFields+Mdrug−MTTFields×Mdrug) was divided by the actual measured mortality for TTFields+drug. Additivity was determined when the 95% confidence interval (CI) overlapped 1, synergy when 95% CI<1, and antagonism when 95% CI>1. Lower Ii values were considered indicative of higher synergy levels.

OVCAR-3 cells = test system: OVCAR-3 cells
Description: as §1, §2, §3, §4, §5, §6

A2780cis cells = assay: Apoptosis, Annexin V/7-AAD staining, flow cytometer; assay type: cell-based, human; settings: TTFields applied with drug
Description: Apoptosis was also examined. Treated cells were double-stained with FITC-conjugated annexin V (AnnV) and 7-aminoactinomycin D (7AAD), and data acquisition was performed with a flow cytometer.
Treated cells were double-stained with FITC-conjugated annexin V (AnnV) and 7-aminoactinomycin D (7AAD), and data acquisition was performed with a flow cytometer.
Treated cells were stained with FITC-conjugated Annexin V (AnnV) and 7-Aminoactinomycin D (7-AAD) using a commercial kit (BioLegend, San Diego, CA, USA), according to the manufacturer's instruction. Data acquisition and analysis were done on the Cytek Northern Lights flow cytometer

G2/M cell cycle arrest = assay: Cell cycle analysis (7-AAD, flow cytometer); assay type: cell-based, human
Description: For DNA damage and cell cycle examination, the following drug concentrations were selected: For A2780—6 μM carboplatin, 1 μM olaparib, and 0.5 μM niraparib; For OVCAR-3-16 μM carboplatin, 0.5 μM olaparib, and 0.8 μM niraparib; For A2780cis—36 μM carboplatin, 10 μM olaparib, and 1.5 μM niraparib. Treated cells were fixed with 70% ice-cold ethanol for 30 min, pelleted, washed, and stained for 30 min at 37° C. in phosphate buffered saline (PBS) containing 1% FBS 5 μg/ml 7-AAD (BioLegend), 200 μg/ml RNase, 1 mM EDTA and 0.1% Triton X-100. Data acquisition (at 665/30 nm) and analysis were done on the Cytek Northern Lights flow cytometer and the FlowJo 10.8.1 software (BD Biosciences), respectively.

[1] = test system: orthotopic ID8-fLuc (HRP) ovarian cancer tumors; assay: Overall survival of ovarian cancer bearing mice; assay type: in vivo
Description: Murine experiments were approved by the KU Leuven ethical committee (P082/2021). NIH guidelines for the Care and Use of Laboratory Animals were followed along with the 2010/62/EU directive and the ARRIVE (Animal Research: Reporting of In Vivo Research: Reporting of In Vivo Experiments) guidelines. Syngeneic ID8-fluc cells were harvested using 0.05% Trypsin-EDTA and inoculated (5×10^6 cells in 100 μL DPBS) intraperitoneally in female C57BL/6 mice (six- to eight-week-old, obtained from Envigo (Horst, The Netherlands)), leading to the development of a stage III-IV ovarian cancer model.
Seven days post inoculation, treatment was initiated. Mice were divided into four groups receiving either, sham-heat and vehicle (n=8), sham-heat and olaparib (n=8), TTFields and vehicle (n=7) or TTFields and olaparib (n=11). TTFields treatment (200 kHz) was administered continuously using the in vivo system (Novocure, Israel) by applying electrode arrays to the shaven abdomen of the mice as previously described. Sham-heat used analogous non-therapeutic arrays. Olaparib (MedKoo Biosciences, USA) was dissolved in a vehicle of 10% DMSO, 50% PEG300 and 40% DPBS and administered at a concentration of 50 mg/kg/day through daily oral gavage. Overall, therapeutic interventions lasted for four weeks, given in four cycles of five consecutive treatment days, followed by two days without treatment.
Mice were followed up and weighed daily once ascites development started as indicated by the appearance of abdominal distention. Mice were sacrificed when their body weight reached ≥32 grams as a surrogate endpoint for survival.

[2] = TTFields 200 kHz, 1 V/cm RMS, 72 h
[3] = TTFields plus drug vs drug alone
[4] = TTFields plus drug vs drug alone, p<0.0001

In the case of `O=C(c1cc(Cc2n[nH]c(=O)c3ccccc23)ccc1F)N1CCN(C(=O)C2CC2)CC1` [olaparib], the “type of TTFields-drug interaction, cytotoxic effect (cell count)” value (A2780 cells) is reported as “synergistically”, the “level of TTFields-drug synergy” value (A2780 cells; A2780 relative to A2780cis cells, by Ii) is reported as “higher” and the “type of TTFields-drug interaction (measured vs calculated additive curve)” value (A2780 cells; HRP cells, TTFields 200 kHz, 1 V/cm RMS, 72 h) is reported as “high synergy”. For the same molecule, the “type of TTFields-drug interaction, overall effect (cell count and clonogenic effect)” value (A2780 cells; [2]) was “synergistically”, the “effect of TTFields on the drug-induced overall effect (cell count x colony formation)” value (A2780 cells; [3]) was “significantly augmented” and the “effect of TTFields on the drug-induced effect, cell count” value (A2780 cells; [4]) was “significantly augmented”. The “type of TTFields-drug interaction (measured vs calculated additive curve)” value (OVCAR-3 cells; HRD cells, TTFields 200 kHz, 1 V/cm RMS, 72 h) was “additively”, the “type of TTFields-drug interaction, overall effect (cell count and clonogenic effect)” value (OVCAR-3 cells; [2]) was “additive” and the “type of TTFields-drug interaction, cytotoxic effect (cell count)” value (OVCAR-3 cells; TTFields 200 kHz, 1 V/cm RMS, 72 h, BRCA mutant) was “additively”. For the same molecule, the “effect of TTFields on the drug-induced overall effect (cell count x colony formation)” value (OVCAR-3 cells; [3]) was “significantly augmented”, the “effect of TTFields on the drug-induced effect, cell count” value (OVCAR-3 cells; [4]) was “significantly augmented” and the “sensitivity to drug (cell count dose response)” value (OVCAR-3 cells; drug alone, 72 h, compared among A2780, OVCAR-3, A2780cis) was “highest sensitivity”. The “effect of TTFields on the apoptotic effect / apoptotic cell fraction” value (A2780cis cells) was “elevation”, the “cell cycle arrest, drug alone” value (G2/M cell cycle arrest) was “induced G2/M arrest” and the “median overall survival, TTFields plus olaparib” value ([1]; TTFields (200 kHz) plus olaparib 50 mg/kg/day, control 62 days) was 70 days. For the same molecule, the “median overall survival, monotherapy” value ([1]; monotherapy, control 62 days) was 64.5 days, the “survival compared to control mice, monotherapy” value ([1]; olaparib only, p=0.0401) was “survival benefit” and the “survival, TTFields plus olaparib compared to control and monotherapies” value ([1]; p=0.0003 vs control, p=0.0003 vs olaparib, p=0.0130 vs TTFields) was “significantly prolonged”.
